Measurements published in paper PMC4428032 (Bioconjugate Chemistry, 2015).

Columns and labels:
[1] = cited from earlier work
[2] = T1 relaxivity measurements at 0.5 T; type: physicochemical; settings: 20 MHz, 25 °C

T1 relaxivity [2]	SMILES	thermodynamic stability constant log K [1]
–	O=C([O-])CN1CCN(CC(=O)[O-])CCN(CC(=O)[O-])CC1.[Ga+3] [Ga-NOTA]	31.0
–	O=C([O-])CN1CCN(CC(=O)[O-])CCN(CC(=O)O)CCN(CC(=O)[O-])CC1.[Gd+3] [Gd-DOTA]	24.7
–	O=C([O-])CN1CCN(CC(=O)[O-])CCN(CC(=O)[O-])CC1.[Gd+3] [Gd-NOTA]	14.3
4.1 mM^–1 s^–1	CNC[C@H](O)[C@@H](O)[C@H](O)[C@H](O)CO.CNC[C@H](O)[C@@H](O)[C@H](O)[C@H](O)CO.O=C([O-])CN(CCN(CC(=O)[O-])CC(=O)O)CCN(CC(=O)[O-])CC(=O)O.[Gd+3] [Magnevist]	–
